Measurements from the CheMixHub viscosity set.
± gives the uncertainty stated by the source.

Test: xn = mol fraction of the nth substance listed

NC=O + CC(C)(C)O
308 K, 101 kPa
Conditions	viscosity [mPa·s]
x1 = 0.1112	2.784
x1 = 0.2296	3.129
x1 = 0.3735	3.402
x1 = 0.5054	3.512
x1 = 0.6138	3.505
x1 = 0.7045	3.383
x1 = 0.7815	3.224
x1 = 0.8476	3.024
x1 = 0.9051	2.817

CN1CCC[C@H]1c1cccnc1 + CC(C)=O
viscosity [mPa·s], 101 kPa
Conditions	x1 = 0.1173	x1 = 0.2498	x1 = 0.378	x1 = 0.5005	x1 = 0.6228	x1 = 0.7485	x1 = 0.8439
298.15 K	0.4615 ± 0.025	0.6975 ± 0.032	0.9326 ± 0.04	1.28 ± 0.051	1.695 ± 0.065	2.274 ± 0.084	2.856 ± 0.1
308.15 K	0.4184 ± 0.023	0.6054 ± 0.029	0.7994 ± 0.036	1.075 ± 0.044	1.397 ± 0.055	1.818 ± 0.069	2.248 ± 0.083
323.15 K	0.3526 ± 0.021	0.4988 ± 0.026	0.6476 ± 0.031	0.8411 ± 0.037	1.065 ± 0.044	1.364 ± 0.054	1.619 ± 0.062

OCCCO + CC(C)=O
viscosity [mPa·s], 100 kPa
Conditions	x2 = 0.1008	x2 = 0.1914	x2 = 0.3021	x2 = 0.4009	x2 = 0.51	x2 = 0.6004	x2 = 0.7	x2 = 0.7983	x2 = 0.9002
293.15 K	29.2 ± 2.9	17.28 ± 1.7	9.162 ± 0.92	5.229 ± 0.52	2.942 ± 0.29	1.764 ± 0.18	1.321 ± 0.13	1.18 ± 0.24	1.04 ± 0.42
298.15 K	23.55 ± 2.4	14.22 ± 1.4	7.721 ± 0.77	4.496 ± 0.45	2.567 ± 0.26	1.583 ± 0.16	1.14 ± 0.11	1.038 ± 0.21	0.9174 ± 0.37
303.15 K	19.21 ± 1.9	11.82 ± 1.2	6.554 ± 0.66	3.894 ± 0.39	2.257 ± 0.23	1.428 ± 0.14	1.031 ± 0.1	0.9173 ± 0.18	0.8122 ± 0.32
308.15 K	15.86 ± 1.6	9.922 ± 1	5.609 ± 0.56	3.395 ± 0.34	1.997 ± 0.2	1.293 ± 0.13	0.9331 ± 0.094	0.8138 ± 0.16	0.722 ± 0.29
313.15 K	13.22 ± 1.3	8.416 ± 0.85	4.85 ± 0.49	2.979 ± 0.3	1.78 ± 0.18	1.175 ± 0.12	0.8442 ± 0.085	0.7248 ± 0.15	0.6442 ± 0.26
318.15 K	11.13 ± 1.1	7.191 ± 0.72	4.215 ± 0.42	2.633 ± 0.26	1.597 ± 0.16	1.07 ± 0.11	0.7632 ± 0.077	0.6479 ± 0.13	0.5768 ± 0.23
323.15 K	9.46 ± 0.95	6.198 ± 0.62	3.679 ± 0.37	2.343 ± 0.23	1.433 ± 0.14	0.9737 ± 0.098	0.6946 ± 0.07	0.5811 ± 0.12	0.5183 ± 0.21

CCOC(=O)CCC(=O)OCC + CC(C)CCO
viscosity [mPa·s], 100 kPa
Conditions	293.15 K	298.15 K	313.15 K
x1 = 0.5	–	2.025 ± 0.02	–
x1 = 0.7999	2.455 ± 0.024	–	1.635 ± 0.016

CCOC(=O)CCC(=O)OCC + CC(C)CO
Conditions	viscosity [mPa·s]
303.15 K, 100 kPa, x1 = 0.0999	2.135 ± 0.018

NC=O + CC(C)CO
308 K, 101 kPa
Conditions	viscosity [mPa·s]
x1 = 0.1092	2.344
x1 = 0.2053	2.444
x1 = 0.3677	2.574
x1 = 0.4992	2.682
x1 = 0.6079	2.757
x1 = 0.6993	2.788
x1 = 0.7772	2.782
x1 = 0.844	2.744
x1 = 0.9029	2.701

CCN(CC)CC(=O)Nc1c(C)cccc1C + CC(C)[C@@H]1CC[C@@H](C)C[C@H]1O
100 kPa, x2 = 0.667
Conditions	viscosity [mPa·s]
293.15 K	69.38 ± 1.9
298.15 K	45.91 ± 1.2
303.15 K	31.73 ± 0.83
308.15 K	22.78 ± 0.58
313.15 K	16.87 ± 0.42
318.15 K	12.85 ± 0.31
323.15 K	10.02 ± 0.24

CN1CCC[C@H]1c1cccnc1 + CC(O)CO
100 kPa
Conditions	viscosity [mPa·s]
293.15 K, x1 = 0.1	59.35 ± 1.2
293.15 K, x1 = 0.3	44.85 ± 0.92
298.15 K, x1 = 0.6005	14.25 ± 0.29
303.15 K, x1 = 0.2009	28.85 ± 0.59
308.15 K, x1 = 0.6005	8.935 ± 0.18
313.15 K, x1 = 0.7	5.605 ± 0.12
313.15 K, x1 = 0.7983	4.425 ± 0.092
318.15 K, x1 = 0.3	11.45 ± 0.23

NC=O + CC(O)CO
viscosity [mPa·s], 101 kPa
Conditions	293.15 K	298.15 K	303.15 K	308.15 K	313.15 K	318.15 K
x1 = 0.0567	41.37 ± 0.22	33.51 ± 0.18	27.96 ± 0.15	23 ± 0.13	18.07 ± 0.1	14.26 ± 0.081
x1 = 0.1191	36.96 ± 0.2	29.71 ± 0.16	24.4 ± 0.13	19.81 ± 0.11	15.28 ± 0.086	11.93 ± 0.068
x1 = 0.1736	–	29.68 ± 0.91	–	–	–	–
x1 = 0.1881	33.2 ± 0.18	26.49 ± 0.14	21.59 ± 0.12	17.16 ± 0.094	12.95 ± 0.073	9.801 ± 0.057
x1 = 0.2649	29.41 ± 0.15	23.3 ± 0.12	18.92 ± 0.1	14.86 ± 0.082	10.98 ± 0.062	8.107 ± 0.048
x1 = 0.3159	–	22.75 ± 0.68	–	–	–	–
x1 = 0.3409	25.85 ± 0.13	20.41 ± 0.11	16.5 ± 0.088	12.9 ± 0.071	9.425 ± 0.054	6.875 ± 0.041
x1 = 0.4166	–	18.75 ± 0.55	–	–	–	–
x1 = 0.4478	21.21 ± 0.11	16.73 ± 0.088	13.52 ± 0.072	10.58 ± 0.058	7.704 ± 0.045	5.602 ± 0.034
x1 = 0.5518	–	14.59 ± 0.41	–	–	–	–
x1 = 0.5578	16.8 ± 0.087	13.31 ± 0.07	10.81 ± 0.058	8.506 ± 0.048	6.3 ± 0.037	4.653 ± 0.029
x1 = 0.6017	–	13.69 ± 0.39	–	–	–	–
x1 = 0.654	–	12.31 ± 0.35	–	–	–	–
x1 = 0.6838	12.2 ± 0.064	9.902 ± 0.053	8.159 ± 0.045	6.542 ± 0.037	5.072 ± 0.031	3.959 ± 0.024
x1 = 0.7347	–	10.26 ± 0.28	–	–	–	–
x1 = 0.8117	–	8.254 ± 0.23	–	–	–	–
x1 = 0.8295	7.586 ± 0.042	6.35 ± 0.036	5.433 ± 0.032	4.647 ± 0.028	3.789 ± 0.023	3.144 ± 0.019
x1 = 0.8808	–	6.511 ± 0.18	–	–	–	–
x1 = 0.8818	6.101 ± 0.035	5.206 ± 0.03	4.59 ± 0.027	4.003 ± 0.024	3.386 ± 0.02	2.902 ± 0.018
x1 = 0.9392	4.756 ± 0.028	4.189 ± 0.025	3.805 ± 0.023	3.401 ± 0.02	2.96 ± 0.018	2.601 ± 0.016
x1 = 0.9434	–	4.916 ± 0.13	–	–	–	–

OCCCO + CC(O)CO
viscosity [mPa·s], 101 kPa
Conditions	x2 = 0.1014	x2 = 0.2101	x2 = 0.2999	x2 = 0.4071	x2 = 0.5013	x2 = 0.5925	x2 = 0.7113	x2 = 0.8005	x2 = 0.9208
298.15 K	42.34 ± 0.45	42.71 ± 0.42	–	–	43.62 ± 0.34	43.82 ± 0.32	43.95 ± 0.29	43.88 ± 0.27	–
303.15 K	–	34.03 ± 0.33	34.2 ± 0.31	34.39 ± 0.29	34.49 ± 0.27	34.55 ± 0.25	34.49 ± 0.23	34.36 ± 0.22	34.11 ± 0.2
308.15 K	27.18 ± 0.29	27.11 ± 0.27	27.05 ± 0.25	–	–	–	26.36 ± 0.18	26.06 ± 0.17	25.59 ± 0.15

CN1CCC[C@H]1c1cccnc1 + CCC(C)=O
viscosity [mPa·s], 101 kPa
Conditions	x1 = 0.1253	x1 = 0.2463	x1 = 0.3642	x1 = 0.4878	x1 = 0.6133	x1 = 0.7374	x1 = 0.883
298.15 K	0.5454 ± 0.027	0.7187 ± 0.033	0.9572 ± 0.041	1.246 ± 0.05	1.646 ± 0.063	2.2 ± 0.081	3.069 ± 0.11
323.15 K	0.4075 ± 0.023	0.5104 ± 0.026	0.6647 ± 0.031	0.8283 ± 0.036	1.041 ± 0.043	1.316 ± 0.052	1.767 ± 0.067

OCCCO + CCC(C)=O
Conditions	viscosity [mPa·s]
318.15 K, 100 kPa, x1 = 0.7989	6.885 ± 0.075
